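Method: 48-hour compound exposure of cells in 96-well plates, five concentrations, linear interpolation of endpoints. GI50 = concentration required for 50% inhibition of growth. TGI: total growth inhibition.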
Legend:
Assay in all cases: NCI-60 cell line screen, 48 h; in the data active = GI50 below about 0.43 µM; inactive = the rest
RXF 393 renal = system: RXF 393 renal
HS 578T breast = system: HS 578T breast
SN12C renal = system: SN12C renal
MALME-3M melanoma = system: MALME-3M melanoma
LOX IMVI melanoma = system: LOX IMVI melanoma
MOLT-4 leukemia = system: MOLT-4 leukemia
U251 CNS = system: U251 CNS
KM12 colon = system: KM12 colon
786-0 renal = system: 786-0 renal
OVCAR-3 ovarian = system: OVCAR-3 ovarian
A498 renal = system: A498 renal
MDA-MB-435 = system: MDA-MB-435
UO-31 renal = system: UO-31 renal
CAKI-1 renal = system: CAKI-1 renal
TK-10 renal = system: TK-10 renal
OVCAR-4 ovarian = system: OVCAR-4 ovarian
HL-60(TB) leukemia = system: HL-60(TB) leukemia
SNB-75 CNS = system: SNB-75 CNS
NCI/ADR-RES ovarian = system: NCI/ADR-RES ovarian
IGROV1 ovarian = system: IGROV1 ovarian
SW-620 colon = system: SW-620 colon
DU-145 prostate = system: DU-145 prostate
HCC-2998 colon = system: HCC-2998 colon
HT29 colon = system: HT29 colon
ACHN renal = system: ACHN renal
SNB-19 CNS = system: SNB-19 CNS
EKVX NSCLC = system: EKVX NSCLC
NCI-H226 lung = system: NCI-H226 lung
NCI-H522 lung = system: NCI-H522 lung
CCRF-CEM leukemia = system: CCRF-CEM leukemia
OVCAR-8 ovarian = system: OVCAR-8 ovarian
SK-MEL-2 melanoma = system: SK-MEL-2 melanoma
HOP-62 NSCLC = system: HOP-62 NSCLC
SR leukemia = system: SR leukemia
NCI-H460 lung = system: NCI-H460 lung
PC-3 prostate = system: PC-3 prostate
NCI-H23 lung = system: NCI-H23 lung
K-562 leukemia = system: K-562 leukemia
UACC-62 melanoma = system: UACC-62 melanoma
HOP-92 NSCLC = system: HOP-92 NSCLC
MDA-MB-231 breast = system: MDA-MB-231 breast
T-47D breast = system: T-47D breast
SF-295 CNS = system: SF-295 CNS
SK-MEL-5 melanoma = system: SK-MEL-5 melanoma
SF-268 CNS = system: SF-268 CNS
OVCAR-5 ovarian = system: OVCAR-5 ovarian
M14 melanoma = system: M14 melanoma
A549 NSCLC = system: A549 NSCLC
SF-539 CNS = system: SF-539 CNS
UACC-257 melanoma = system: UACC-257 melanoma
SK-MEL-28 melanoma = system: SK-MEL-28 melanoma
BT-549 breast = system: BT-549 breast
HCT-15 colon = system: HCT-15 colon
HCT-116 colon = system: HCT-116 colon
MCF7 breast = system: MCF7 breast
RPMI-8226 leukemia = system: RPMI-8226 leukemia
SK-OV-3 ovarian = system: SK-OV-3 ovarian
COLO 205 colon = system: COLO 205 colon

NC(=O)c1c(NC(=O)c2cccs2)sc2c1CCC(=O)C2
14.2 µM: TGI (LOX IMVI melanoma)
> 100 µM: TGI (HS 578T breast) | TGI (SN12C renal) | TGI (U251 CNS) | TGI (786-0 renal) | TGI (CAKI-1 renal) | TGI (TK-10 renal) | TGI (DU-145 prostate) | TGI (HT29 colon) | TGI (SNB-19 CNS) | TGI (CCRF-CEM leukemia) | TGI (OVCAR-8 ovarian) | TGI (HOP-62 NSCLC) | TGI (SR leukemia) | TGI (NCI-H460 lung) | TGI (PC-3 prostate) | TGI (K-562 leukemia) | TGI (T-47D breast) | TGI (SF-268 CNS) | TGI (M14 melanoma) | TGI (A549 NSCLC) | TGI (SK-MEL-28 melanoma)
9.52 µM: TGI (KM12 colon)
36.7 µM: TGI (IGROV1 ovarian)
18.7 µM: TGI (MCF7 breast)
52.9 µM: TGI (A498 renal)
26.4 µM: TGI (NCI/ADR-RES ovarian)
8.88 µM: TGI (ACHN renal)
9.05 µM: TGI (SNB-75 CNS)
87.1 µM: TGI (EKVX NSCLC)
10.6 µM: TGI (MDA-MB-435)
5.06 µM: TGI (SF-539 CNS)
17.9 µM: TGI (HCT-15 colon)
7.08 µM: TGI (UACC-257 melanoma)
7.13 µM: TGI (HL-60(TB) leukemia)
10.1 µM: TGI (UO-31 renal)
4.43 µM: TGI (UACC-62 melanoma)
5.93 µM: TGI (OVCAR-3 ovarian)
16.8 µM: TGI (SW-620 colon)
7.92 µM: TGI (NCI-H522 lung)
13.7 µM: TGI (HCT-116 colon)
9.42 µM: TGI (SF-295 CNS)
4.58 µM: TGI (MALME-3M melanoma)
48.3 µM: TGI (NCI-H226 lung)
8.49 µM: TGI (RXF 393 renal)
16.1 µM: TGI (MOLT-4 leukemia)
3.19 µM: TGI (SK-MEL-5 melanoma)
4 µM: TGI (HOP-92 NSCLC)
9.23 µM: TGI (OVCAR-5 ovarian)
7.78 µM: TGI (SK-MEL-2 melanoma)
6.28 µM: TGI (MDA-MB-231 breast)
2.75 µM: TGI (OVCAR-4 ovarian)
7.34 µM: TGI (NCI-H23 lung)
8.41 µM: TGI (BT-549 breast)
inactive: GI50 (RXF 393 renal) 2.05 µM | GI50 (HS 578T breast) 3.27 µM | GI50 (SN12C renal) 2.95 µM | GI50 (MALME-3M melanoma) 1.85 µM | GI50 (LOX IMVI melanoma) 2.44 µM | GI50 (MOLT-4 leukemia) 2.28 µM | GI50 (U251 CNS) 2.28 µM | GI50 (KM12 colon) 2.18 µM | GI50 (786-0 renal) 4.34 µM | GI50 (OVCAR-3 ovarian) 1.8 µM | GI50 (A498 renal) 6 µM | GI50 (MDA-MB-435) 2.95 µM | GI50 (UO-31 renal) 1.58 µM | GI50 (CAKI-1 renal) 2.65 µM | GI50 (TK-10 renal) 6.33 µM | GI50 (OVCAR-4 ovarian) 0.761 µM | GI50 (HL-60(TB) leukemia) 2.45 µM | GI50 (SNB-75 CNS) 1.7 µM | GI50 (NCI/ADR-RES ovarian) 2.5 µM | GI50 (IGROV1 ovarian) 1.98 µM | GI50 (SW-620 colon) 0.809 µM | GI50 (DU-145 prostate) 4.13 µM | GI50 (HCC-2998 colon) 4.13 µM | GI50 (HT29 colon) 3.12 µM | GI50 (ACHN renal) 2.16 µM | GI50 (SNB-19 CNS) 3.49 µM | GI50 (EKVX NSCLC) 2.54 µM | GI50 (NCI-H226 lung) 3.96 µM | GI50 (NCI-H522 lung) 0.892 µM | GI50 (CCRF-CEM leukemia) 0.458 µM | GI50 (OVCAR-8 ovarian) 3.02 µM | GI50 (SK-MEL-2 melanoma) 2.71 µM | GI50 (HOP-62 NSCLC) 3.65 µM | GI50 (SR leukemia) 1.43 µM | GI50 (NCI-H460 lung) 2.98 µM | GI50 (PC-3 prostate) 0.627 µM | GI50 (NCI-H23 lung) 1.83 µM | GI50 (K-562 leukemia) 0.736 µM | GI50 (UACC-62 melanoma) 0.811 µM | GI50 (HOP-92 NSCLC) 1.38 µM | GI50 (MDA-MB-231 breast) 1.99 µM | GI50 (T-47D breast) 2.05 µM | GI50 (SF-295 CNS) 2.86 µM | GI50 (SK-MEL-5 melanoma) 1.62 µM | GI50 (SF-268 CNS) 3.21 µM | GI50 (OVCAR-5 ovarian) 2.68 µM | GI50 (M14 melanoma) 3.73 µM | GI50 (A549 NSCLC) 3.5 µM | GI50 (SF-539 CNS) 1.54 µM | GI50 (UACC-257 melanoma) 2.73 µM | GI50 (SK-MEL-28 melanoma) 4.52 µM | GI50 (BT-549 breast) 2.08 µM | GI50 (HCT-15 colon) 1.65 µM | GI50 (HCT-116 colon) 1.7 µM | GI50 (MCF7 breast) 2.48 µM
48.9 µM: TGI (HCC-2998 colon)

CC(Br)CN1CCOCC1 (stereo not drawn)
> 100 µM: TGI (RXF 393 renal) | TGI (HS 578T breast) | TGI (SN12C renal) | TGI (MALME-3M melanoma) | TGI (LOX IMVI melanoma) | TGI (U251 CNS) | TGI (KM12 colon) | TGI (786-0 renal) | TGI (OVCAR-3 ovarian) | TGI (A498 renal) | TGI (MDA-MB-435) | TGI (UO-31 renal) | TGI (CAKI-1 renal) | TGI (TK-10 renal) | TGI (NCI/ADR-RES ovarian) | TGI (IGROV1 ovarian) | TGI (SW-620 colon) | TGI (DU-145 prostate) | TGI (HCC-2998 colon) | TGI (HT29 colon) | TGI (ACHN renal) | TGI (SNB-19 CNS) | TGI (EKVX NSCLC) | TGI (NCI-H226 lung) | TGI (NCI-H522 lung) | TGI (RPMI-8226 leukemia) | TGI (OVCAR-8 ovarian) | TGI (SK-MEL-2 melanoma) | TGI (HOP-62 NSCLC) | TGI (SR leukemia) | TGI (NCI-H460 lung) | TGI (PC-3 prostate) | TGI (NCI-H23 lung) | TGI (K-562 leukemia) | TGI (UACC-62 melanoma) | TGI (HOP-92 NSCLC) | TGI (MDA-MB-231 breast) | TGI (T-47D breast) | TGI (SK-OV-3 ovarian) | TGI (SK-MEL-5 melanoma) | TGI (SF-268 CNS) | TGI (OVCAR-5 ovarian) | TGI (M14 melanoma) | TGI (A549 NSCLC) | TGI (SF-539 CNS) | TGI (UACC-257 melanoma) | TGI (SK-MEL-28 melanoma) | TGI (COLO 205 colon) | TGI (BT-549 breast) | TGI (HCT-15 colon) | TGI (HCT-116 colon) | TGI (MCF7 breast)
51.8 µM: TGI (HL-60(TB) leukemia)
